Assay results: PubChem BioAssay AID2060329 (Molecular Pharmacology Branch, DTP, NCI, 2025)
“And” between values parts separate entries of the source, which are not always exact repeats. Equal entries are not always repeated.

System: MCF7 multi-cell spheroids with HUVEC/MSC, viability
Test: Anticancer human tumor MCF7 cell line growth inhibition [IpAb];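 further: spheroids exposed to agents for seven days before readout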
Details: for viability, T/C: stronger effect = lower value
Description: Combinatorial screen of targeted agents with ipatasertib and abemaciclib in multi-cell type tumor spheroids
A high-throughput screen of multi-cell type tumor spheroids was designed to identify active combinations of targeted small molecules and ipatasertib or abemaciclib. Complex spheroids include a stromal component modeled by human endothelial cells (HUVEC) and fibroblasts modeled by human mesenchymal stem cells (MSCs). The concentration ranges selected for each drug and investigational agent were based upon clinically achievable concentrations if the clinical Cmax of the agent was known.
Compounds. The drugs and investigational agents: ipatasertib (NSC767898), abemaciclib(NSC768073), selumetinib (NSC741078), trametinib (758246), adavosertib (NSC754352), everolimus (NSC733504), sapanisertib (NSC764658), vemurafenib (NSC761431), venetoclax (NSC766270), copanlisib (NSC809693), apelisib (NSC765974), palbociblib (NSC758247), vemurafenib (NSC761431), dabrafenib (NSC764134), ravoxertinib (NSC781343), BMS-387032 (NSC767048), sotorasib (NSC818433), talazoparib (NSC767125) and afursertib (NSC778305), were obtained from the National Cancer Institute (NCI) Developmental Therapeutics Program Chemical Repository. The FDA-approved anticancer drug set is available from the NCI Developmental Therapeutics Program. […] The stock solutions were prepared in dimethyl sulfoxide (DMSO, Sigma-Aldrich, St. Louis, MO, cat. D2650) at 800-fold the tested concentration and stored at -70 degrees C prior to their use. All drugs and investigational agents were tested over a range starting from a high concentration at or near the clinical Cmax and decreasing in half-log increments. If the clinical Cmax for an agent had not been determined, the highest concentration tested was 10 microM.
NCI60 Cell Culture. NCI60 cell lines were obtained from the NCI Developmental Therapeutics Program Tumor Repository. For each lot of cells, the Repository performed Applied Biosystems AmpFLSTR Identifiler testing with PCR amplification to confirm consistency with the published Identifier STR profile for each cell line. Cells were kept in continuous culture for no more than 20 passages. The optimal seeding densities for each of the cell lines at each time point assessed were determined prior to performing the concentration response studies. Briefly, the NCI60 human tumor lines were grown as monolayers in RPMI 1640 medium supplemented with 10% FBS and 2 mmol/L L-glutamine.
An additional 9 lines were from the NCI60 cell line panel including MDA-MB-231 breast carcinoma, MDA-MB-468 breast carcinoma, MCF7 breast carcinoma, Hs578T breast carcinoma, MALME-3M melanoma, SK-MEL-2 melanoma, SK-OV-3 ovarian carcinoma, DU-145 prostate carcinoma, PC-3 prostate carcinoma, all cell lines along with major genetic alterations are listed on Table 2. Pooled donor human umbilical vein endothelial cells (HUVEC, Lonza, cat. CC-2519) and human mesenchymal stem cells (hMSC, Lonza, cat. PT-2501) were purchased from Lonza (Walkersville, MD).
PDMR cell lines were grown in complete medium (DC medium): Dulbecco's modified Eagle's medium (DMEM)/F12 supplemented with 5% fetal bovine serum (FBS), 2 mM L-glutamine, 100 U/mL penicillin and 100 µg/ml streptomycin, 0.4 µg/ml hydrocortisone, 10 ng/ml epidermal growth factor (EGF) recombinant human protein, 24 µg/mL adenine, and 0.1 mg/mL primocin. During culture from frozen stock vials, PDMR cells were cultured in the same medium containing 10 µM Y-27632 (see Table 3). The PDCs were cultured in complete DMEM/F12 media without 10 microM Y-27632 dihydrochloride for at least two passages prior to the screen. The pooled donor HUVEC and hMSC were cultured in endothelial cell growth medium 2 (PromoCell, Heidelberg, Germany, cat. C-22011) and mesenchymal stem cell growth medium 2 (PromoCell, cat. C-28009), respectively. For all experiments, HUVEC and hMSC were used at passages </=5.
[…]

Row | SMILES | viability, T/C (compound 0.0316 µM) | viability, T/C (compound 0.1 µM) | viability, T/C (compound 0.316 µM) | viability, T/C (compound 1 µM) | viability, T/C (compound 3.16 µM) | viability, T/C (compound 10 µM) | IC50 (curve of compound) | viability, T/C (compound 0.01 µM) | also measured
1 | C=CC(=O)N1CCN(c2nc(=O)n(-c3c(C)ccnc3C(C)C)c3nc(-c4c(O)cccc4F)c(F)cc23)C(C)C1 (stereo not drawn) | 98.6% and 117% | 106% | 102% and 121% | 103% and 107% | 107% and 83.4% | 71.2% and 76.7% | > 10 µM |  | 
2 | C=CCn1c(=O)c2cnc(Nc3ccc(N4CCN(C)CC4)cc3)nc2n1-c1cccc(C(C)(C)O)n1 | 104% and 99.2% | 98.9% and 108% | 58.2% and 76.1% | 34% and 44.2% | 28.5% and 29.7% | 28.2% and 33.6% | 0.463 µM and 0.765 µM |  | 
3 | CC(=O)c1c(C)c2cnc(Nc3ccc(N4CCNCC4)cn3)nc2n(C2CCCC2)c1=O |  |  |  |  |  |  | > 0.3 µM |  | viability, T/C (compound 0.000949 µM): 119% and 97.4%; viability, T/C (compound 0.003 µM): 101% and 97.1%; viability, T/C (compound 0.00949 µM): 95.5% and 95.7%; viability, T/C (compound 0.03 µM): 96.1% and 115%; viability, T/C (compound 0.0949 µM): 109% and 95.9%; viability, T/C (compound 0.3 µM): 89.2% and 104%
4 | CC(C)(C)c1cnc(CSc2cnc(NC(=O)C3CCNCC3)s2)o1 |  |  |  |  |  |  | 0.1 µM and 0.0767 µM |  | viability, T/C (compound 0.00949 µM): 105% and 109%; viability, T/C (compound 0.03 µM): 100% and 104%; viability, T/C (compound 0.0949 µM): 51.5% and 37.9%; viability, T/C (compound 0.3 µM): 22% and 24.1%; viability, T/C (compound 0.949 µM): 27.4% and 28.2%; viability, T/C (compound 3 µM): 35.6% and 32.6%
5 | CC(C)NCC(C(=O)N1CCN(c2ncnc3c2C(C)CC3O)CC1)c1ccc(Cl)cc1 (stereo not drawn) |  | 86.9% [middle of 13 runs] | 75.5% [middle of 13 runs] | 65.3% [middle of 13 runs] | 54.2% [middle of 13 runs] |  |  |  | 
6 | CC(C)n1nc(-c2ccc3oc(N)nc3c2)c2c(N)ncnc21 | 42.5% and 29.7% | 25% and 22.1% |  |  |  |  | 0.0259 µM and 0.0164 µM | 73.5% and 65.5% | viability, T/C (compound 0.000316 µM): 98.9% and 88.3%; viability, T/C (compound 0.001 µM): 86.4% and 81.6%; viability, T/C (compound 0.00316 µM): 80.8% and 82.8%
7 | CC1(C)CCC(CN2CCN(c3ccc(C(=O)NS(=O)(=O)c4ccc(NCC5CCOCC5)c([N+](=O)[O-])c4)c(Oc4cnc5[nH]ccc5c4)c3)CC2)=C(c2ccc(Cl)cc2)C1 | 88.4% and 102% | 102% and 108% | 97.2% and 109% | 94.4% and 98.2% | 84.6% and 98.1% | 16.5% and 20.3% | 5.68 µM and 6.45 µM |  | 
8 | CCCS(=O)(=O)Nc1ccc(F)c(C(=O)c2c[nH]c3ncc(-c4ccc(Cl)cc4)cc23)c1F | 102% and 98.6% | 106% and 100% | 102% and 96.2% | 104% and 97% | 99.4% and 93.1% | 105% and 97.9% | > 10 µM |  | 
9 | CCN1CCN(Cc2ccc(Nc3ncc(F)c(-c4cc(F)c5nc(C)n(C(C)C)c5c4)n3)nc2)CC1 | 101% [middle of 13 runs] |  |  |  |  |  |  | 97.5% [middle of 13 runs] | IC50 (compound alone, run of 06/01/2021): > 1 µM
10 | COc1c(OCCCN2CCOCC2)ccc2c3n(c(=NC(=O)c4cnc(N)nc4)nc12)CCN3 | 64.7% and 59.9% | 32% and 36.9% | 14% and 10.5% | 14.2% and 13.4% |  |  | 0.0519 µM | 80.2% and 84.9% | viability, T/C (compound 0.00316 µM): 89.3% and 87.5%
